We go through 14 compounds from patent US11986532B2 (Arvinas Operations, Inc., priority 2021, dated 2024).

The target in the experiment is T1, BCL6 (Homo sapiens, UniProt P41182).
T1 construct: endogenous in cells; host or cells: T47D breast cancer epithelial cells
Description: Immunofluorescence protocol for high content imaging of BCL6 (degradation) in T47D cells, 3 days compound treatment. Type of experiment: cell-based. The following applies: for Dmax: T47D, read-out: Mean Dmax (%)** category; for DC50: read-out: Mean DC50 (nM)* category. The essentials:
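T47D, RPMI1640/10% FBS; cpd 11-pt 3-fold, top 0.1 or 1 μM final; 3 d, 37° C. Fix 4% PFA, perm 0.1% Triton, block 3% BSA; anti-BCL6 1:300 o/n 4° C; Alexa-488 2°, CellMask-647, Hoechst. Imaged 10×, 4 fields/well.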

Regarding `CNC(=O)COc1cc2cc(Nc3nc(N4CCC(O[C@H]5C[C@H](N6CCC7(CCN(c8ccc9c(c8)C(=O)N(C8CCC(=O)NC8=O)C9=O)CC7)C6)C5)CC4)ncc3Cl)ccc2n(C(C)C)c1=O` (stereo partly shown) [Compound 362, 2-({6-[(5-chloro-2-{4-[(1r,3r)-3-{8-[2-(2,6-dioxopiperidin-3-yl)-1,3-dioxo-2,3-dihydro-1H-isoindol-5-yl]-2,8-diazaspiro [4.5]decan-2-yl}cyclobutoxy]piperidin-1-yl}pyrimidin-4-yl)amino]-2-oxo-1-(propan-2-yl)-1,2-dihydroquinolin-3-yl}oxy)-N-methylacetamide], the maximal degradation (Dmax) is at least 70% and the DC50 fell in the range of 10 to 50 nM.

As to `CNC(=O)COc1cc2cc(Nc3nc(N4CCC(O[C@H]5C[C@H](N6CCC7(CCN(c8ccc9c(c8)CN(C8CCC(=O)NC8=O)C9=O)CC7)C6)C5)CC4)ncc3Cl)ccc2n(C(C)C)c1=O` (stereo partly shown) [Compound 363, 2-({6-[(5-chloro-2-{4-[(1r,3r)-3-{8-[2-(2,6-dioxopiperidin-3-yl)-1-oxo-2,3-dihydro-1H-isoindol-5-yl]-2,8-diazaspiro[4.5]decan-2-yl}cyclobutoxy]piperidin-1-yl}pyrimidin-4-yl)amino]-2-oxo-1-(propan-2-yl)-1,2-dihydroquinolin-3-yl}oxy)-N-methylacetamide], the “Mean Dmax (%)** category” value is listed as “A (A >= 70)” and the DC50 is under 10 nM.

For the compound `CNC(=O)COc1cc2cc(Nc3nc(N4CCC(O[C@H]5C[C@H](N6CC7(CCN(c8ccc9c(c8)C(=O)N(C8CCC(=O)NC8=O)C9=O)CC7)C6)C5)CC4)ncc3Cl)ccc2n(C(C)C)c1=O` (stereo partly shown) [Compound 365, 2-({6-[(5-chloro-2-{4-[(1r,3r)-3-{7-[2-(2,6-dioxopiperidin-3-yl)-1,3-dioxo-2,3-dihydro-1H-isoindol-5-yl]-2,7-diazaspiro [3.5]nonan-2-yl}cyclobutoxy]piperidin-1-yl}pyrimidin-4-yl)amino]-2-oxo-1-(propan-2-yl)-1,2-dihydroquinolin-3-yl}oxy)-N-methylacetamide], the Dmax is 50 to 70% and the DC50 is under 10 nM.

`CNC(=O)COc1cc2cc(Nc3nc(N4CCC(O[C@H]5C[C@H](N6CCC7(CC6)CN(c6ccc8c(c6)CN(C6CCC(=O)NC6=O)C8=O)C7)C5)CC4)ncc3Cl)ccc2n(C(C)C)c1=O` (stereo partly shown) [Compound 366, 2-({6-[(5-chloro-2-{4-[(1r,3r)-3-{2-[2-(2,6-dioxopiperidin-3-yl)-1-oxo-2,3-dihydro-1H-isoindol-5-yl]-2,7-diazaspiro [3.5]nonan-7-yl}cyclobutoxy]piperidin-1-yl}pyrimidin-4-yl)amino]-2-oxo-1-(propan-2-yl)-1,2-dihydroquinolin-3-yl}oxy)-N-methylacetamide]: the Dmax was at least 70% and the DC50 was under 10 nM.

Turning to `CNC(=O)COc1cc2cc(Nc3nc(N4CCC(O[C@H]5C[C@H](N6CCN(c7ccc8c(c7)C(=O)N(C7CCC(=O)NC7=O)C8=O)C(C)(C)C6)C5)CC4)ncc3Cl)ccc2n(C(C)C)c1=O` (stereo partly shown) [Compound 367, 2-({6-[(5-chloro-2-{4-[(1r,3r)-3-{4-[2-(2,6-dioxopiperidin-3-yl)-1,3-dioxo-2,3-dihydro-1H-isoindol-5-yl]-3,3-dimethylpiperazin-1-yl}cyclobutoxy]piperidin-1-yl}pyrimidin-4-yl)amino]-2-oxo-1-(propan-2-yl)-1,2-dihydroquinolin-3-yl}oxy)-N-methylacetamide], the Dmax was at least 70% and the DC50 was in the range of 10 to 50 nM.

On to `CNC(=O)COc1cc2cc(Nc3nc(N4CCC(O[C@H]5C[C@H](N6CC7(CCN(c8ccc9c(c8)CN(C8CCC(=O)NC8=O)C9=O)CC7)C6)C5)CC4)ncc3Cl)ccc2n(C(C)C)c1=O` (stereo partly shown) [Compound 369, 2-({6-[(5-chloro-2-{4-[(1r,3r)-3-{7-[2-(2,6-dioxopiperidin-3-yl)-1-oxo-2,3-dihydro-1H-isoindol-5-yl]-2,7-diazaspiro[3.5]nonan-2-yl}cyclobutoxy]piperidin-1-yl}pyrimidin-4-yl)amino]-2-oxo-1-(propan-2-yl)-1,2-dihydroquinolin-3-yl}oxy)-N-methylacetamide], for which the Dmax was at least 70% and the DC50 was under 10 nM.

Turning to `CNC(=O)COc1cc2cc(Nc3nc(N4CCC(O[C@H]5C[C@H](N6CC7CCC(C6)N7c6ccc7c(c6)C(=O)N(C6CCC(=O)NC6=O)C7=O)C5)CC4)ncc3Cl)ccc2n(C(C)C)c1=O` (stereo partly shown) [Compound 370, 2-({6-[(5-chloro-2-{4-[(1r,3r)-3-{8-[2-(2,6-dioxopiperidin-3-yl)-1,3-dioxo-2,3-dihydro-1H-isoindol-5-yl]-3,8-diazabicyclo[3.2.1]octan-3-yl}cyclobutoxy]piperidin-1-yl}pyrimidin-4-yl)amino]-2-oxo-1-(propan-2-yl)-1,2-dihydroquinolin-3-yl}oxy)-N-methylacetamide], the Dmax was under 50% and the DC50 lay within 10 to 50 nM.

With `CNC(=O)COc1cc2cc(Nc3nc(N4CCC(O[C@H]5C[C@H](N6CC7CCC(C6)N7c6ccc7c(c6)CN(C6CCC(=O)NC6=O)C7=O)C5)CC4)ncc3Cl)ccc2n(C(C)C)c1=O` (stereo partly shown) [Compound 371, 2-({6-[(5-chloro-2-{4-[(1r,3r)-3-{8-[2-(2,6-dioxopiperidin-3-yl)-1-oxo-2,3-dihydro-1H-isoindol-5-yl]-3,8-diazabicyclo[3.2.1]octan-3-yl}cyclobutoxy]piperidin-1-yl}pyrimidin-4-yl)amino]-2-oxo-1-(propan-2-yl)-1,2-dihydroquinolin-3-yl}oxy)-N-methylacetamide], the Dmax is under 50% and the DC50 is under 10 nM.

As to `CNC(=O)COc1cc2cc(Nc3nc(N4CCC(O[C@H]5C[C@H](N6C7CCC6CN(c6ccc8c(c6)C(=O)N(C6CCC(=O)NC6=O)C8=O)C7)C5)CC4)ncc3Cl)ccc2n(C(C)C)c1=O` (stereo partly shown) [Compound 372, 2-({6-[(5-chloro-2-{4-[(1r,3r)-3-{3-[2-(2,6-dioxopiperidin-3-yl)-1,3-dioxo-2,3-dihydro-1H-isoindol-5-yl]-3,8-diazabicyclo[3.2.1]octan-8-yl}cyclobutoxy]piperidin-1-yl}pyrimidin-4-yl)amino]-2-oxo-1-(propan-2-yl)-1,2-dihydroquinolin-3-yl}oxy)-N-methylacetamide], the Dmax was 50 to 70% and the DC50 was under 10 nM.

For the compound `CNC(=O)COc1cc2cc(Nc3nc(N4CCC(CN5CCC6(CC5)CC5(CN(c7ccc8c(c7)C(=O)N(C7CCC(=O)NC7=O)C8=O)C5)C6)CC4)ncc3Cl)ccc2n(C(C)C)c1=O` (stereo not shown) [Compound 373, 2-{[6-({5-chloro-2-[4-({2-[2-(2,6-dioxopiperidin-3-yl)-1,3-dioxo-2,3-dihydro-1H-isoindol-5-yl]-2,9-diazadispiro[3.1.5^6.1^4]dodecan-9-yl}methyl)piperidin-1-yl]pyrimidin-4-yl}amino)-2-oxo-1-(propan-2-yl)-1,2-dihydroquinolin-3-yl]oxy}-N-methylacetamide], the Dmax is at least 70% and the DC50 is under 10 nM.

Turning to `CNC(=O)COc1cc2cc(Nc3nc(N4CCC(CN5CCC6(CC5)CC5(CN(c7cccc8c7C(=O)N(C7CCC(=O)NC7=O)C8=O)C5)C6)CC4)ncc3Cl)ccc2n(C(C)C)c1=O` (stereo not shown) [Compound 374, 2-{[6-({5-chloro-2-[4-({2-[2-(2,6-dioxopiperidin-3-yl)-1,3-dioxo-2,3-dihydro-1H-isoindol-4-yl]-2,9-diazadispiro[3.1.5^6.1^4]dodecan-9-yl}methyl)piperidin-1-yl]pyrimidin-4-yl}amino)-2-oxo-1-(propan-2-yl)-1,2-dihydroquinolin-3-yl]oxy}-N-methylacetamide], the Dmax is at least 70% and the DC50 is under 10 nM.

For `CNC(=O)COc1cc2c(F)c(Nc3nc(N4CCC(CN5CCC6(CC5)CN(c5ccc7c(c5)C(=O)N(C5CCC(=O)NC5=O)C7=O)C6(C)C)CC4)ncc3Cl)ccc2n(C(C)C)c1=O` (stereo not shown) [Compound 375, 2-{[6-({5-chloro-2-[4-({2-[2-(2,6-dioxopiperidin-3-yl)-1,3-dioxo-2,3-dihydro-1H-isoindol-5-yl]-1,1-dimethyl-2,7-diazaspiro[3.5]nonan-7-yl}methyl)piperidin-1-yl]pyrimidin-4-yl}amino)-5-fluoro-2-oxo-1-(propan-2-yl)-1,2-dihydroquinolin-3-yl]oxy}-N-methylacetamide], the Dmax was at least 70% and the DC50 is under 10 nM.

On to `CNC(=O)COc1cc2c(F)c(Nc3nc(N4CCC(CN5CCC6(CN(c7ccc8c(c7F)CN(C7CCC(=O)NC7=O)C8=O)C6)C(F)(F)C5)CC4)ncc3Cl)ccc2n(C(C)C)c1=O` (stereo not shown) [Compound 376, 2-{[6-({5-chloro-2-[4-({2-[2-(2,6-dioxopiperidin-3-yl)-4-fluoro-1-oxo-2,3-dihydro-1H-isoindol-5-yl]-5,5-difluoro-2,7-diazaspiro[3.5]nonan-7-yl}methyl)piperidin-1-yl]pyrimidin-4-yl}amino)-5-fluoro-2-oxo-1-(propan-2-yl)-1,2-dihydroquinolin-3-yl]oxy}-N-methylacetamide], for which the Dmax is at least 70% and the DC50 was under 10 nM.

On to `CNC(=O)COc1cc2cc(Nc3nc(N4CCC(O[C@H]5C[C@H](N6CC7(CCN(c8ccc9c(c8)C(=O)N(C8CCC(=O)NC8=O)C9)CC7)C6)C5)CC4)ncc3Cl)ccc2n(C(C)C)c1=O` (stereo partly shown) [Compound 377, 2-({6-[(5-chloro-2-{4-[(1r,3r)-3-{7-[2-(2,6-dioxopiperidin-3-yl)-3-oxo-2,3-dihydro-1H-isoindol-5-yl]-2,7-diazaspiro[3.5]nonan-2-yl}cyclobutoxy]piperidin-1-yl}pyrimidin-4-yl)amino]-2-oxo-1-(propan-2-yl)-1,2-dihydroquinolin-3-yl}oxy)-N-methylacetamide], for which the Dmax was at least 70% and the half-maximal degradation concentration (DC50) was 50 to 100 nM.
